In ChEMBL document CHEMBL1132901, “Synthesis and structure-activity relationships of quaternary ammonium cephalosporins with 3-pyrazolylpyridinium derivatives” (2000) one finds MIC data, which are given here for five compounds.

In brackets after ≈: the same amount, converted by molar mass.

Assay [1] relates to Enterobacter cloacae. Kind of assay: In vitro antimicrobial activity against Enterobacter 1321 E. Type of assay: functional.
Assay [2] relates to Escherichia coli. The experiment in a line: In vitro antimicrobial activity against Escherichia coli 055. Type of assay: functional.
The test system of assay [3] is Escherichia coli. Kind of assay: In vitro antimicrobial activity against Escherichia coli 1507E. Type of assay: functional.
Assay [4] relates to Escherichia coli. Kind of assay: In vitro antimicrobial activity against Escherichia coli DC 0. The format is functional.
For assay [5], the system named is Escherichia coli. Kind of assay: In vitro antimicrobial activity against Escherichia coli DC 2. The format is functional.
Assay [6] concerns Escherichia coli. Kind of assay: In vitro antimicrobial activity against Escherichia coli TEM. The format is functional.
The test system of assay [7] is Enterobacter cloacae. Kind of assay: In vitro antimicrobial activity against Enterobacter cloacae P99. The format is functional.
A further assay deals with Klebsiella oxytoca. The experiment in a line: In vitro antimicrobial activity against Klebsiella oxytoca 1082. The format is functional.
The next assay relates to Klebsiella aerogenes. The experiment in a line: In vitro antimicrobial activity against Klebsiella aerogenes 1522 E. The format is functional.
In assay [8] the test system is Pseudomonas aeruginosa. Kind of assay: In vitro antimicrobial activity against Pseudomonas aeruginosa 1771. The format is functional.
For assay [9], the system named is Pseudomonas aeruginosa. Kind of assay: In vitro antimicrobial activity against Pseudomonas aeruginosa 1771 M. Type of assay: functional.
Assay [10] concerns Pseudomonas aeruginosa. Kind of assay: In vitro antimicrobial activity against Pseudomonas aeruginosa 9027. Type of assay: functional.
A further assay deals with Salmonella typhimurium. The experiment in a line: In vitro antimicrobial activity against Salmonella Typhimurium. The format is functional, Salmonella enterica subsp. enterica serovar Typhimurium. As to conditions: Salmonella enterica.
In assay [11] the test system is Streptococcus pyogenes. Kind of assay: In vitro antimicrobial activity against Streptococcus pyogenes 77A. Type of assay: functional.
Assay [12] deals with Streptococcus pyogenes. Kind of assay: In vitro antimicrobial activity against Streptococcus pyogenes A 308. Type of assay: functional.
In assay [13] the test system is Streptococcus pyogenes. Kind of assay: In vitro antimicrobial activity against Streptococcus pyogenes SG 511. Type of assay: functional.
The test system of assay [14] is Staphylococcus aureus. The experiment in a line: In vitro antimicrobial activity against Methicillin resistant Staphylococcus aureus (MRSA). The format is functional.
In assay [15] the test system is Staphylococcus aureus. Kind of assay: In vitro antimicrobial activity against Staphylococcus aureus 285. The format is functional.
The subject of assay [16] is Staphylococcus aureus. The experiment in a line: In vitro antimicrobial activity against Staphylococcus aureus 503. Type of assay: functional.
The next assay relates to Enterococcus faecium. The experiment in a line: In vitro antimicrobial activity against Streptococcus faecium MD 8b. Type of assay: functional.
The subject of assay [17] is Pseudomonas aeruginosa. The experiment in a line: In vitro antimicrobial activity against Pseudomonas aeruginosa 1592 E. The format is functional.

Take `CO/N=C(/C(=O)N[C@@H]1C(=O)N2C(C(=O)[O-])=C(C[n+]3cccc(-c4cc(C(N)=O)[nH]n4)c3)CS[C@H]12)c1csc(N)n1`: the MIC against Enterobacter cloacae [1] was 0.025 µg/mL (≈ 0.0428 µM); in the assay on Escherichia coli [2] it was 0.025 µg/mL (≈ 0.0428 µM); in the assay with Escherichia coli [3] it was 0.098 µg/mL (≈ 0.168 µM); with Escherichia coli [4], 0.025 µg/mL (≈ 0.0428 µM); against Escherichia coli [5], 0.025 µg/mL (≈ 0.0428 µM); in the assay on Escherichia coli [6], 0.195 µg/mL (≈ 0.334 µM). Further, the MIC turned out to be 50 µg/mL (≈ 85.7 µM) against Enterobacter cloacae [7]; 1.56 µg/mL (≈ 2.68 µM) with Klebsiella oxytoca; 0.049 µg/mL (≈ 0.084 µM) in the assay with Klebsiella aerogenes; 1.56 µg/mL (≈ 2.68 µM) with Pseudomonas aeruginosa [8]; 0.781 µg/mL (≈ 1.34 µM) against Pseudomonas aeruginosa [9]; 6.25 µg/mL (≈ 10.7 µM) against Pseudomonas aeruginosa [10]. For the same compound, the MIC with Salmonella typhimurium was 0.049 µg/mL (≈ 0.084 µM); with Streptococcus pyogenes [11], 0.013 µg/mL (≈ 0.0223 µM); against Streptococcus pyogenes [12] it was 0.013 µg/mL (≈ 0.0223 µM); in the assay on Streptococcus pyogenes [13], 0.781 µg/mL (≈ 1.34 µM); against Staphylococcus aureus [14], 50 µg/mL (≈ 85.7 µM); in the assay with Staphylococcus aureus [15] it was 1.56 µg/mL (≈ 2.68 µM). Moreover, the MIC with Staphylococcus aureus [16] worked out at 0.391 µg/mL (≈ 0.67 µM); in the assay on Enterococcus faecium it was 3.12 µg/mL (≈ 5.35 µM); with Pseudomonas aeruginosa [17] it was 3.12 µg/mL (≈ 5.35 µM).

Take `CO/N=C(/C(=O)N[C@@H]1C(=O)N2C(C(=O)[O-])=C(C[n+]3cccc(-c4cc(N)n(CCO)n4)c3)CS[C@H]12)c1csc(N)n1`: the MIC came to 0.025 µg/mL (≈ 0.0417 µM) against Enterobacter cloacae [1]; 0.025 µg/mL (≈ 0.0417 µM) against Escherichia coli [2]; 0.098 µg/mL (≈ 0.163 µM) against Escherichia coli [3]; 0.025 µg/mL (≈ 0.0417 µM) against Escherichia coli [4]; 0.013 µg/mL (≈ 0.0217 µM) in the assay with Escherichia coli [5]; 0.098 µg/mL (≈ 0.163 µM) in the assay on Escherichia coli [6]. The minimal inhibitory concentration (MIC) was 50 µg/mL (≈ 83.4 µM) against Enterobacter cloacae [7]; 3.12 µg/mL (≈ 5.21 µM) against Klebsiella oxytoca; 0.049 µg/mL (≈ 0.0817 µM) against Klebsiella aerogenes; 3.12 µg/mL (≈ 5.21 µM) against Pseudomonas aeruginosa [8]; 0.391 µg/mL (≈ 0.652 µM) in the assay on Pseudomonas aeruginosa [9]; 12.5 µg/mL (≈ 20.8 µM) with Pseudomonas aeruginosa [10]. The MIC against Salmonella typhimurium is 0.098 µg/mL (≈ 0.163 µM); against Streptococcus pyogenes [11] it was 0.013 µg/mL (≈ 0.0217 µM); with Streptococcus pyogenes [12], 0.025 µg/mL (≈ 0.0417 µM); with Streptococcus pyogenes [13], 0.781 µg/mL (≈ 1.3 µM); with Staphylococcus aureus [14], 12.5 µg/mL (≈ 20.8 µM); against Staphylococcus aureus [15], 1.56 µg/mL (≈ 2.61 µM). In addition, the MIC was found to be 0.391 µg/mL (≈ 0.652 µM) against Staphylococcus aureus [16], 1.56 µg/mL (≈ 2.61 µM) against Enterococcus faecium and 6.25 µg/mL (≈ 10.4 µM) against Pseudomonas aeruginosa [17].

Take `CO/N=C(/C(=O)N[C@@H]1C(=O)N2C(C(=O)[O-])=C(C[n+]3cccc(-c4cc(N)n(C)n4)c3)CS[C@H]12)c1csc(N)n1`: the MIC in the assay on Enterobacter cloacae [1] came out at 0.025 µg/mL (≈ 0.0439 µM); in the assay with Escherichia coli [2], 0.025 µg/mL (≈ 0.0439 µM); against Escherichia coli [3], 0.049 µg/mL (≈ 0.086 µM); against Escherichia coli [4], 0.025 µg/mL (≈ 0.0439 µM); with Escherichia coli [5], 0.013 µg/mL (≈ 0.0228 µM); against Escherichia coli [6], 0.098 µg/mL (≈ 0.172 µM). Also, the MIC was 25 µg/mL (≈ 43.9 µM) with Enterobacter cloacae [7]; 1.56 µg/mL (≈ 2.74 µM) in the assay on Klebsiella oxytoca; 0.025 µg/mL (≈ 0.0439 µM) against Klebsiella aerogenes; 1.56 µg/mL (≈ 2.74 µM) in the assay on Pseudomonas aeruginosa [8]; 0.391 µg/mL (≈ 0.686 µM) in the assay on Pseudomonas aeruginosa [9]; 6.25 µg/mL (≈ 11 µM) with Pseudomonas aeruginosa [10]. For the same compound, the MIC in the assay with Salmonella typhimurium came out at 0.049 µg/mL (≈ 0.086 µM); against Streptococcus pyogenes [11], 0.007 µg/mL (≈ 0.0123 µM); in the assay on Streptococcus pyogenes [12] it was 0.013 µg/mL (≈ 0.0228 µM); in the assay with Streptococcus pyogenes [13], 0.781 µg/mL (≈ 1.37 µM); in the assay with Staphylococcus aureus [14], 50 µg/mL (≈ 87.8 µM); with Staphylococcus aureus [15], 0.781 µg/mL (≈ 1.37 µM). The MIC is 0.391 µg/mL (≈ 0.686 µM) against Staphylococcus aureus [16], 1.56 µg/mL (≈ 2.74 µM) against Enterococcus faecium and 3.12 µg/mL (≈ 5.49 µM) with Pseudomonas aeruginosa [17].

For the compound `CO/N=C(/C(=O)N[C@@H]1C(=O)N2C(C(=O)[O-])=C(C[n+]3cccc(-c4cc(C(N)=O)nn4CCO)c3)CS[C@H]12)c1csc(N)n1`, the MIC against Enterobacter cloacae [1] came to 0.049 µg/mL (≈ 0.0781 µM); in the assay on Escherichia coli [2], 0.098 µg/mL (≈ 0.156 µM); in the assay on Escherichia coli [3], 0.195 µg/mL (≈ 0.311 µM); in the assay with Escherichia coli [4], 0.098 µg/mL (≈ 0.156 µM); in the assay on Escherichia coli [5], 0.098 µg/mL (≈ 0.156 µM); against Escherichia coli [6], 0.391 µg/mL (≈ 0.623 µM). Besides, the MIC in the assay with Enterobacter cloacae [7] came to 50 µg/mL (≈ 79.7 µM); against Klebsiella oxytoca, 6.25 µg/mL (≈ 9.96 µM); in the assay with Klebsiella aerogenes, 0.098 µg/mL (≈ 0.156 µM); against Pseudomonas aeruginosa [8] it was 3.12 µg/mL (≈ 4.98 µM); against Pseudomonas aeruginosa [9], 0.781 µg/mL (≈ 1.24 µM); in the assay on Pseudomonas aeruginosa [10], 25 µg/mL (≈ 39.8 µM). For the same compound, the MIC is 0.098 µg/mL (≈ 0.156 µM) against Salmonella typhimurium; 0.025 µg/mL (≈ 0.0398 µM) against Streptococcus pyogenes [11]; 0.049 µg/mL (≈ 0.0781 µM) with Streptococcus pyogenes [12]; 1.56 µg/mL (≈ 2.49 µM) with Streptococcus pyogenes [13]; 25 µg/mL (≈ 39.8 µM) against Staphylococcus aureus [14]; 3.12 µg/mL (≈ 4.98 µM) in the assay on Staphylococcus aureus [15]. The MIC with Staphylococcus aureus [16] came to 0.781 µg/mL (≈ 1.24 µM); in the assay with Enterococcus faecium, 6.25 µg/mL (≈ 9.96 µM); with Pseudomonas aeruginosa [17], 12.5 µg/mL (≈ 19.9 µM).

Take `CO/N=C(/C(=O)N[C@@H]1C(=O)N2C(C(=O)[O-])=C(C[n+]3cccc(-c4cc(C(N)=O)nn4C)c3)CS[C@H]12)c1csc(N)n1`: the MIC was 0.025 µg/mL (≈ 0.0418 µM) in the assay on Enterobacter cloacae [1]; 0.049 µg/mL (≈ 0.082 µM) against Escherichia coli [2]; 0.098 µg/mL (≈ 0.164 µM) against Escherichia coli [3]; 0.049 µg/mL (≈ 0.082 µM) in the assay on Escherichia coli [4]; 0.025 µg/mL (≈ 0.0418 µM) against Escherichia coli [5]; 0.195 µg/mL (≈ 0.326 µM) against Escherichia coli [6]. Moreover, the MIC against Enterobacter cloacae [7] was 25 µg/mL (≈ 41.8 µM); in the assay with Klebsiella oxytoca it was 3.12 µg/mL (≈ 5.23 µM); in the assay with Klebsiella aerogenes, 0.049 µg/mL (≈ 0.082 µM); in the assay on Pseudomonas aeruginosa [8] it was 3.12 µg/mL (≈ 5.23 µM); in the assay with Pseudomonas aeruginosa [9] it was 0.391 µg/mL (≈ 0.654 µM); in the assay with Pseudomonas aeruginosa [10], 25 µg/mL (≈ 41.8 µM). For the same compound, the MIC was determined as 0.098 µg/mL (≈ 0.164 µM) against Salmonella typhimurium; 0.013 µg/mL (≈ 0.0218 µM) in the assay with Streptococcus pyogenes [11]; 0.025 µg/mL (≈ 0.0418 µM) against Streptococcus pyogenes [12]; 1.56 µg/mL (≈ 2.62 µM) against Streptococcus pyogenes [13]; 100 µg/mL (≈ 167 µM) in the assay on Staphylococcus aureus [14]; 3.12 µg/mL (≈ 5.23 µM) against Staphylococcus aureus [15]. Moreover, the figures for the MIC against Staphylococcus aureus [16], in the assay with Enterococcus faecium and against Pseudomonas aeruginosa [17] were 0.391 µg/mL (≈ 0.654 µM), 3.12 µg/mL (≈ 5.23 µM) and 12.5 µg/mL (≈ 20.9 µM), respectively.

In general, MIC refers to the least concentration at which growth counts as inhibited.
